Laboratory results from patent US20240368181A1, “QUINOXALINE DERIVATIVES AND USES THEREOF” (Black Diamond Therapeutics, Inc., priority 2021, published 2024).

Key:
Assay type in all cases: cell-based
[1] = tested on: UM-UC-14 (FGFR3-S249C) cells; test: Cell proliferation assay (CellTiterGlo), UM-UC-14 cells; details: UMUC14, 72 h, inhibition of cell growth, intracellular ATP (CellTiterGlo)
From the text: (§1) The following is a non-limiting example that describes a cell proliferation assay used to determine the biological activity of the compounds of the present disclosure. More specifically, the assay as used to assess the ability of the compounds to inhibit cell proliferation.
(§2) Briefly, SNU-16 (FGFR2-amplification) cells, were resuspended at 18,520c/ml mL in RPMI containing 10% Heat Inactivated FBS, 1% L-glutamine and dispensed in duplicate (463c/well) into 384 well plates. UM-UC-14 (FGFR3-S249C) cells were resuspended at 40.000c/ml mL in RPMI containing 10% Heat Inactivated FBS, 1% L-glutamine and dispensed in duplicate (1000c/well) into 384 well plates. DMS-114 (FGFR1 overexpression) cells and were resuspended at 40,000c/ml mL in RPMI containing 10% Heat Inactivated FBS, 1% L-glutamine and dispensed in duplicate (1000c/well) into 384 well plates. RT-112 (FGFR3-Tacc3 fusion) cells were resuspended at 40,000c/ml mL in RPMI containing 10% Heat Inactivated FBS, 1% L-glutamine and dispensed in duplicate (1000c/well) into 384 well plates. To determine the effect of the compounds of the present disclosure on cell proliferation, SNU-16, UM-UC-14, DMS-114 and RT112 cells were incubated for 72 hours in the presence of vehicle control (DMSO) or a compound of the present disclosure at varying concentrations. Inhibition of cell growth was subsequently determined by luminescent quantification (Envision by Perkin Elmer) of intracellular ATP content using CellTiterGlo (Promega), according to the protocol provided by the manufacturer. To determine the IC50 values, the vehicle-treated cells were normalized as viable cells and analyzed using the CDD Vault software (Collaborative Drug Discovery, Burlingame, CA).

[2] = tested on: SNU-16 (FGFR2-amplification) cells; test: Cell proliferation assay (CellTiterGlo), SNU-16 cells; details: inhibition of cell growth, intracellular ATP (CellTiterGlo)
From the text: as §1, §2

[3] = tested on: DMS-114 (FGFR1 overexpression) cells; test: Cell proliferation assay (CellTiterGlo), DMS-114 cells; details: Homo sapiens, 72 hours, inhibition of cell growth, intracellular ATP (CellTiterGlo)
From the text: as §1, §2

[4] = tested on: RT-112 (FGFR3-Tacc3 fusion) cells; test: Cell proliferation assay (CellTiterGlo), RT-112 cells; details: Homo sapiens, RT-112, 72 h, RT112 cells, inhibition of cell growth, intracellular ATP (CellTiterGlo)
From the text: as §1, §2

Row | IC50 ([2]; Homo sapiens, SNU-16, 72 h) [nM] | IC50 ([2]; 72 hours) [nM] | SMILES | IC50 [1] [nM] | IC50 [3] [nM] | IC50 [4] [nM]
1 | 100 to 400 | – | Cc1nc2ccc(Oc3ccc4ncc(-c5cnn(C6CCNC6)c5)nc4c3Cl)cc2[nH]1 (stereo not drawn) [Compound 27] | 20 to 100 | ≥ 400 | 20 to 100
2 | 100 to 400 | – | Cc1nc2ccc(Oc3ccc4ncc(-c5cnn(CC6CC6)c5)nc4c3Cl)cc2[nH]1 [Compound 44] | 100 to 400 | ≥ 400 | 100 to 400
3 | 20 to 100 | – | Cc1nc2ccc(Oc3ccc4ncc(-c5cnn(CC6CCN(C)C(=O)C6)c5)nc4c3Cl)cc2[nH]1 (stereo not drawn) [Compound 20] | 20 to 100 | ≥ 400 | 20 to 100
4 | – | 20 to 100 | Cc1nc2ccc(Oc3ccc4ncc(-c5cnn(CC6CCNCC6)c5)nc4c3Cl)cc2[nH]1 [Compound 11] | 100 to 400 | ≥ 400 | 20 to 100
5 | < 20 | – | Cc1nc2ccc(Oc3ccc4ncc(-c5cnn(CC6CCN(C7COC7)CC6)c5)nc4c3Cl)cc2[nH]1 [Compound 35] | 20 to 100 | ≥ 400 | < 20
6 | 20 to 100 | – | Cc1nc2ccc(Oc3ccc4ncc(-c5cnn(CC6CCN(C)CC6)c5C)nc4c3Cl)cc2[nH]1 [Compound 31] | 20 to 100 | 100 to 400 | 20 to 100
7 | 20 to 100 | – | Cc1nc2ccc(Oc3ccc4ncc(-c5cnn(CC6(O)CC6)c5)nc4c3Cl)cc2[nH]1 [Compound 67] | 20 to 100 | ≥ 400 | 20 to 100
8 | ≥ 400 | – | Cc1nc2c(C#N)cc(Oc3ccc4ncc(-c5cnn(CC6CCOCC6)c5)nc4c3)cc2[nH]1 [Compound 60] | ≥ 400 | ≥ 400 | ≥ 400
9 | 20 to 100 | – | Cc1nc2ccc(Oc3ccc4ncc(-c5cnn(CC6CCC(F)(F)CC6)c5)nc4c3Cl)cc2[nH]1 [Compound 9] | 20 to 100 | ≥ 400 | 20 to 100
10 | 100 to 400 | – | Cc1nc2ccc(Oc3ccc4ncc(-c5cnn(CC6CNC6)c5)nc4c3Cl)cc2[nH]1 [Compound 16] | 100 to 400 | ≥ 400 | 100 to 400
11 | 20 to 100 | – | Cc1nc2ccc(Oc3ccc4ncc(-c5cnn(CCO)c5)nc4c3Cl)cc2[nH]1 [Compound 15] | 20 to 100 | ≥ 400 | 20 to 100
12 | 20 to 100 | – | Cc1nc2ccc(Oc3ccc4ncc(-c5cnn(C6CCNCC6)c5)nc4c3Cl)cc2[nH]1 [Compound 21] | 20 to 100 | 100 to 400 | < 20
13 | 20 to 100 | – | Cc1nc2ccc(Oc3ccc4ncc(-c5cnn(CC6CCN(S(=O)(=O)CC(C)C)CC6)c5)nc4c3Cl)cc2[nH]1 [Compound 37] | 20 to 100 | 100 to 400 | 20 to 100
14 | < 20 | – | COCCN1CCC(Cn2cc(-c3cnc4ccc(Oc5ccc6nc(C)[nH]c6c5)c(Cl)c4n3)cn2)CC1 [Compound 30] | < 20 | 100 to 400 | < 20
15 | < 20 | – | Cc1nc2ccc(Oc3ccc4ncc(-c5cnn(CC6CCN(C(C)C)CC6)c5)nc4c3Cl)cc2[nH]1 [Compound 24] | < 20 | 100 to 400 | < 20
16 | 100 to 400 | – | Cc1nc2ccc(Oc3ccc4ncc(-c5cnn(CC6CCN(C)CC6)c5)nc4c3F)cc2[nH]1 [Compound 36] | 100 to 400 | ≥ 400 | 100 to 400
17 | 20 to 100 | – | Cc1nc2ccc(Oc3ccc4ncc(-c5cnn(C6CCCNC6)c5)nc4c3Cl)cc2[nH]1 (stereo not drawn) [Compound 7] | 20 to 100 | 100 to 400 | 20 to 100
18 | 100 to 400 | – | Cc1cn2ccc(Oc3ccc4ncc(-c5cnn(CC6CCN(C)CC6)c5)nc4c3Cl)cc2n1 [Compound 63] | ≥ 400 | ≥ 400 | 100 to 400
19 | 20 to 100 | – | Cc1nc2ccc(Oc3ccc4ncc(-c5cnn(CC(O)CO)c5)nc4c3Cl)cc2[nH]1 (stereo not drawn) [Compound 22] | 100 to 400 | ≥ 400 | 20 to 100
20 | 20 to 100 | – | Cc1nc2ccc(Oc3ccc4ncc(-c5cnn(CC6CC(C)N(C)C(C)C6)c5)nc4c3Cl)cc2[nH]1 (stereo not drawn) [Compound 5] | 20 to 100 | ≥ 400 | 20 to 100

Row | IC50 ([2]; Homo sapiens, SNU-16, 72 h) [nM] | IC50 ([2]; 72 hours) [nM] | SMILES | IC50 [1] [nM] | IC50 [3] [nM] | IC50 [4] [nM]
21 | 20 to 100 | – | Cc1nc2ccc(Oc3ccc4ncc(-c5cnn(CC6CCN(S(=O)(=O)CCO)CC6)c5)nc4c3Cl)cc2[nH]1 [Compound 13] | 20 to 100 | ≥ 400 | 20 to 100
22 | 20 to 100 | – | C=CC(=O)N1CCC(CCn2cc(-c3cnc4ccc(Oc5ccc6nc(C)[nH]c6c5)c(Cl)c4n3)cn2)CC1 [Compound 39] | 20 to 100 | 100 to 400 | 20 to 100
23 | ≥ 400 | – | COC(=O)CS(=O)(=O)N1CCC(Cn2cc(-c3cnc4ccc(Oc5ccc6nc(C)[nH]c6c5)c(Cl)c4n3)cn2)CC1 [Compound 29] | ≥ 400 | ≥ 400 | 100 to 400
24 | 20 to 100 | – | Cc1nc2ccc(Oc3ccc4ncc(-c5cnn(CC6CCN(C)C6)c5)nc4c3Cl)cc2[nH]1 (stereo not drawn) [Compound 4] | 20 to 100 | 100 to 400 | 20 to 100
25 | 100 to 400 | – | Cc1nc2ccc(Oc3ccc4ncc(-c5cnn(C6CCC(F)(F)CC6)c5)nc4c3Cl)cc2[nH]1 [Compound 66] | 100 to 400 | ≥ 400 | 100 to 400
26 | 20 to 100 | – | Cc1nc2ccc(Oc3ccc4ncc(-c5cnn(CC6CCN(S(C)(=O)=O)CC6)c5)nc4c3Cl)cc2n1S(C)(=O)=O [Compound 33] | 100 to 400 | ≥ 400 | 20 to 100
27 | 20 to 100 | – | Cc1nc2ccc(Oc3ccc4ncc(-c5cnn(CC6CCN(S(=O)(=O)C(C)C)CC6)c5)nc4c3Cl)cc2[nH]1 [Compound 40] | 20 to 100 | ≥ 400 | 20 to 100
28 | 20 to 100 | – | Cc1nc2ccc(Oc3ccc4ncc(-c5cnn(CC6CCN(S(=O)(=O)C7CC7)CC6)c5)nc4c3Cl)cc2[nH]1 [Compound 42] | 20 to 100 | ≥ 400 | 20 to 100
29 | ≥ 400 | – | Cc1ccc2ccc(Oc3ccc4ncc(-c5cnn(CC6CCN(C)CC6)c5)nc4c3Cl)cc2n1 [Compound 65] | ≥ 400 | ≥ 400 | ≥ 400
30 | ≥ 400 | – | Cc1nc2ccc(Oc3ccc4ncc(-c5cnn(CC6COC6)c5)nc4c3Cl)cc2[nH]1 [Compound 17] | ≥ 400 | ≥ 400 | ≥ 400
31 | 20 to 100 | – | Cc1nc2ccc(Oc3ccc4ncc(-c5cnn(CC6CCN(C)CC6)c5)nc4c3C)cc2[nH]1 [Compound 45] | 20 to 100 | 100 to 400 | 20 to 100
32 | 100 to 400 | – | Cc1nc2c(C#N)cc(Oc3ccc4ncc(-c5cnn(CC6CCN(C)CC6)c5)nc4c3Cl)cc2[nH]1 [Compound 41] | 100 to 400 | ≥ 400 | 100 to 400
33 | 100 to 400 | – | Cc1nc2ccc(Oc3ccc4ncc(-c5cnn(CCC6CCN(C)CC6)c5)nc4c3)cc2[nH]1 [Compound 55] | 100 to 400 | ≥ 400 | 100 to 400
34 | 20 to 100 | – | C=CC(=O)N1CCC(Cn2cc(-c3cnc4ccc(Oc5ccc6nc(C)[nH]c6c5)c(Cl)c4n3)cn2)CC1 [Compound 38] | 20 to 100 | 100 to 400 | < 20
35 | < 20 | – | Cc1nc2ccc(Oc3ccc4ncc(-c5cnn(C6CCN(C)C6)c5)nc4c3Cl)cc2[nH]1 (stereo not drawn) [Compound 26] | 20 to 100 | 100 to 400 | < 20
36 | 20 to 100 | – | Cc1nc2ccc(Oc3ccc4ncc(-c5cnn(CC6CCOC6)c5)nc4c3Cl)cc2[nH]1 (stereo not drawn) [Compound 2] | 20 to 100 | ≥ 400 | 20 to 100
37 | 20 to 100 | – | Cc1nc2cc(Oc3ccc4ncc(-c5cnn(CC6CCOCC6)c5)nc4c3)ccc2[nH]1 [Compound 62] | 100 to 400 | ≥ 400 | 20 to 100
38 | 20 to 100 | – | Cc1nc2ccc(Oc3ccc4ncc(-c5cn(CC6CCN(C)CC6)nc5C)nc4c3Cl)cc2[nH]1 [Compound 32] | 20 to 100 | ≥ 400 | 20 to 100
39 | < 20 | – | CCC(=O)N1CCC(Cn2cc(-c3cnc4ccc(Oc5ccc6nc(C)[nH]c6c5)c(Cl)c4n3)cn2)CC1 [Compound 25] | 20 to 100 | 100 to 400 | < 20
